From US20110224133A1 (University of Southern California, priority 2008, published 2011) come the findings set out here.

Entries after “also recorded” stand apart in the source; their conditions may differ. Ends that are not written are not given here. Peptide text beside a SMILES is read from it. * marks the point of attachment. Cbz = O=C(OCc1ccccc1)*; CH2F = FC*

One assay relates to mTor kinase activity. Nature of the assay: Immunoblot of p70S6K and S6 phosphorylation in BCBL1 cells. The assay is classed as cell-based, human. The note with it: 12 hr, 2 μM rapamycin or 30 μM peptide. The protocol:
WCLs were used for immunoblotting with αp70S6K, αphospho-specific p70S6K, αphospho-specific S6, or αactin. […] WCLs were used for immunoblotting with αFlag or αGST.
Levels of phosphorylation of p70S6K and ribosomal protein S6 in BCBL1 cells were evaluated by immunoblotting with α-p70S6K, αphospho-specific p70S6K, αphospho-specific S6, or αactin.
(In general: Immunoblotting shows a protein as a band on a membrane.)

The subject of assay [1] is LC3-II. Nature of the assay: Immunoblotting with αLC3 of peptide-treated BCBL1 cells. The note with it: 30 μM each, 12 hr.
Description: For panel E, TREX-BCBL-Vector and TREX-BCBL-vFLIP cells were treated with the K-α and the K-α4 (30 μM each) peptide for 12 hr, followed by immunoblotting with αLC3 and αactin.
The K-α2 and K-α4 peptides contained KSHV vFLIP aa20-29 and aa128-139 regions, respectively, as retro-inverso versions to circumvent the proteolytic degradation (FIG. 10 and FIG. 11A). […] Peptide-treated TREX-BCBL-Vector and TREX-BCBL-vFLIP cells were subjected to immunoblotting with αLC3 and αactin.
The next assay concerns Beclin1. In words: Beclin1 siRNA knockdown in BCBL1 cells. It is filed as cell-based, human. From the text:
For panel B, BCBL1 cells were transfected with control siRNA or Beclin1 siRNA and treated with or without rapamycin for 5 days.

A further assay has as its system BCBL1 cells. The note with it: 50 μM zVAD.
Assay [2] has as its target T1, Atg3 (Homo sapiens, UniProt Q9NT62).
T1 construct: expressed in transfected cells; host or cells: HEK293T
Nature of the assay: Co-immunoprecipitation and GST pulldown with Atg3 in HEK293T cells. It is filed as binding. The note with it: HEK293T cells, 48 hr post-transfection. From the text: (§1) For panel A, at 48 hr post-transfection with Flag-vFLIP and/or GFP-Atg3 (left) or Flag-vFLIP and/or GST-Atg3 (middle), HEK293T cells were used for immunoprecipitation with αFlag, αGFP, or GST pulldown, followed by immunoblotting with the indicated antibodies. For panel A (right), HEK293T cells transfected with FIag-vFLIP were used for immunoprecipitation with mouse IgG or αFlag, followed by immunoblotting with αAtg3. Panel B (top) depicts a schematic diagram of human Atg3. N,N-terminus; FR, flexible region; C, C-terminus. […] Panel C (top) depicts a schematic diagram of KSHV vFLIP. […] For panel F, NIH3T3-Vector and NIH3T3-vFLIP cells were treated with 2 nM rapamycin for 12 hr and used for IP with αAtg3, followed by immunoblotting with αLC3. In panels A-F, whole cell lysates (WCLs) were used for immunoblotting with the indicated antibodies to show expression.
(§2) WCLs were used for immunoblotting with αFlag or αGST. […] WCLs were used for immunoblotting with αFlag or αGST.
(§3) The ability of FLIP to bind to Atg3 was evaluated by co-immunoprecipitation assay. HEK293T cells were transfected with Flag-vFLIP and/or GFP-Atg3 or Flag-vFLIP and/or GST-Atg3, and at 48 hr post-transfection, cells were harvested and lysed in an NP40 buffer supplemented with complete protease inhibitor cocktail (Roche). After pre-clearing with protein A/G agarose beads for 1 hr at 4° C., whole-cell lysates were used for immunoprecipitation with αFlag, αGFP, or GST. Generally, 1-4 μg of the antibody was added to 1 ml of the cell lysate and incubated at 4° C. for 8 to 12 hr. The immunoprecipitates were then washed extensively with a lysis buffer and eluted by boiling them with an SDS loading buffer for 5 min. Following immunoprecipitation, samples were treated to immunoblot using αAtg3 (1:500) (Novus).
(§4) The overall structure of yeast Atg3 has a unique hammer-like shape with the N-terminal and C-terminal regions discretely responsible for Atg7 and Atg8 (equivalent to mammalian LC3) binding, respectively. (Yamada et al. (2007) J. Biol. Chem. 282:8036-8043). Based on the structure of yeast Atg3, human Atg3 deletion mutants fused with a GST mammalian expression vector were constructed: GST-Atg31-93, GST-Atg3193-268, GST-Atg3268-315, and GST-Atg3193-315.

The subject of assay [3] is TREX-BCBL-Vector cells. In words: GFP-LC3 puncta autophagy assay in peptide-treated TREX-BCBL cells. The note with it: 30 or 50 μM peptide, 12 hr, 2 μM rapamycin as comparison.
The subject of assay [4] is TREX-BCBL-Vector cells. Nature of the assay: Cell death (BC Z2 CS analyzer) in peptide-treated TREX-BCBL cells. The note with it: identical conditions, 30 or 50 μM peptide.
Description: Subsequently, autophagy was quantified as means (±SD) of the combined results from three independent experiments. 2 μM rapamycin treatment was included as a control. For panels B (right), TREX-BCBL-Vector and TREX-BCBL-vFLIP cells were treated with Doxycycline for 24 hr, followed by incubation with 0, 30, or 50 μM of TAT only, the K-α2, or the K-α4 peptide (top), or TAT only, the C-α2, or the C-α4 peptide (bottom) for an additional 12 hr and a BC Z2 CS analyzer used to determine cell death (as a percentage). […] For panel G, various human lymphoma cells were treated with 0, 30, or 50 μM of the K-α2 peptide (left) or the K-α4 peptide (right) for 12 hr and cell death (as a percentage) was determined using a BC Z2 CS Analyzer. For panel H, KSHV-infected BCBL1 cells were incubated with various combinations of rapamycin (25 nM), the K-α2 peptide (20 μM), and the K-α4 peptide (20 μM). A BC Z2 CS Analyzer was used to determine cell numbers (left) and cell death at 6 days (right).
Cells treated with 2 μM rapamycin treatment were included as controls. For panel C, KSHV-infected BCBL1 cells were treated with TAT only, K-α2, K-α2m, K-α4, or K-α4m (30 or 50 μM) for 24 hr. A BC Z2 CS Analyzer was used to determine cell death (as a percentage).
Assay [5] has as its system KSHV-infected BCBL1 cells. In words: Rapamycin-induced growth suppression and death of BCBL1 cells (cell counts, scanning EM). The assay is classed as cell-based, human. The note with it: 6 days, over 100 dead cells examined. The protocol: The effect of vFLIP on autophagy was tested in a KSHV-infected BCBL1 cell line.
Assay [6] deals with T2, GST-Atg3 (human Atg3, full length) (human, UniProt Q9NT62 1-314).
T2 construct: also called GST-tagged hATG3; full-length Atg3; not shown: N-terminal GST tag
Nature of the assay: GST pulldown from HEK293T cells, immunoblot αFlag.

The target of assay [7] is T3, GST-Atg3 193-315 (C-terminal region) (human, UniProt Q9NT62 193-314).
T3 construct: range 193-315; also called GST-Atg3 C-terminal region (Ct); not shown: N-terminal GST tag
Nature of the assay: GST pulldown with GST-Atg3, Nt and Ct, immunoblot αFlag.

Another assay has as its system NIH3T3 cells. Nature of the assay: GFP-LC3 autophagy assay in NIH3T3 cells expressing FLIP. The assay is classed as cell-based, murine. The note with it: ectopic expression in NIH3T3 cells; Hank's solution 4 hr or 2 μM rapamycin 3 hr.
Assay [8] relates to LC3-II. In words: Anti-LC3 immunoblotting of starved NIH3T3 cells expressing FLIP. The assay is classed as cell-based, murine. The note with it: starvation, Hank's solution 4 hr. Here is the method:
The arrows indicate autophagosomes.
During autophagy, an LC3 precursor (LC3-I) undergoes cleavage and lipidation to yield its processed form (LC3-II) (Mizushima et al. (2008) Nature 451:1069-1075). Immunoblotting was performed with an antibody against LC3 to further measure autophagic activity. […] Polypeptides were resolved by SDS-polyacrylamide gel electrophoresis (PAGE) and transferred to a PVDF membrane (Bio-Rad). […] The proteins were visualized by a chemiluminescence reagent (Pierce) and detected by a Fuji Phosphor Imager. […] Finally, the ability of FLIP to block autophagy in multiple cell types was evaluated.

In assay [9] the test system is Atg3. In words: Co-immunoprecipitation and GST pulldown with Atg3 in HEK293T cells. The note with it: GST-Atg3 deletion mutants, GST pulldown. The assay is classed as binding, human.
Excerpt: as §1, §2, §3, §4

T1 sequence (Q9NT62 whole entry): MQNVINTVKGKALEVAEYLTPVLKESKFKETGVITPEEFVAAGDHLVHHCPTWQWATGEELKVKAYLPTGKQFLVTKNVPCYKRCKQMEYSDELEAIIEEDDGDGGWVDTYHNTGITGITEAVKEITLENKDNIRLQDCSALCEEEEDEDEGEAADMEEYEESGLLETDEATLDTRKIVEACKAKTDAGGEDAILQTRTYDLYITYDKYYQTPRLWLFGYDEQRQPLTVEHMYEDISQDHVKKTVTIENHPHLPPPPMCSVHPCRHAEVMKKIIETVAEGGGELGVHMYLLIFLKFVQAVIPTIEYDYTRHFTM
T2 sequence (Q9NT62 whole entry): as above
T3 sequence (Q9NT62 193-314 limits assumed): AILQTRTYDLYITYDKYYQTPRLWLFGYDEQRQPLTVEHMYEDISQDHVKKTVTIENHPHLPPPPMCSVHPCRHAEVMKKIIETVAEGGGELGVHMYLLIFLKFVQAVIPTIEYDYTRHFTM

“RRRQRRKKRGY-G-FVNLLFLVVE (RRRQRRKKRGYGFVNLLFLVVE; not fully specified (some residues); also: retro-inverso D-amino acids) [K-α2]”: in the assay with mTor kinase activity, the “phosphorylation of p70S6K” value is “marginal reduction” and the “phosphorylation of ribosomal protein S6” value is “remained unaffected”. In the assay on LC3-II [1], the LC3-II level entry is listed as “high amount of LC3-II”.

Regarding “5′AAGAUCCUGGACCGUGUCACC3′ [Beclin1 siRNA]”, in the assay with Beclin1, the “endogenous Beclin1 expression” value is “significantly reduced endogenous Beclin1 expression”. In the assay with Beclin1 (rapamycin, day 5), the rapamycin-induced autophagic death result is “attenuated rapamycin-induced autophagic death”.

Regarding “RRRQRRKKRGY-G-NEMCYVWHLFTQ (RRRQRRKKRGYGNEMCYVWHLFTQ; not fully specified (some residues); also: retro-inverso D-amino acids) [K-α4]”, in the assay on mTor kinase activity, the “phosphorylation of p70S6K” value is on record as “marginal reduction” and the “phosphorylation of ribosomal protein S6” value is reported as “remained unaffected”. The LC3-II level result with LC3-II [1] is recorded as “high amount of LC3-II”.

For `COC(=O)CC(NC(=O)C(C)NC(=O)C(NC(=O)OCc1ccccc1)C(C)C)C(=O)CF` (stereo not drawn) [zVAD, benzyloxycarbonylvalyl-alanyl-aspartic acid (O-methyl)-fluoro-methylketone] (Cbz-Val-Ala-Asp(OMe)-CH2F; configuration not given here), the “growth suppression and death” value in the assay with BCBL1 cells was “effectively induced growth suppression and death of BCBL1 cells”.

Consider QTFLHWVYCMEN [DED2 α4 helix], for which the Atg3 binding result in the assay with Atg3 [2] is “individually sufficient for Atg3 binding”.

Turning to RRRQRRKKRGY-G-NEMCAAAHAATQ [K-α4m], in the assay on TREX-BCBL-Vector cells [3], the “autophagy induction (GFP-LC3 puncta)” value is listed as “no increase in autophagy”. Besides, the “cell death (in words)” value with TREX-BCBL-Vector cells [4] was “no increase in autophagy nor cell death”.

“RRRQRRKKRGY-G (RRRQRRKKRGYG) [HIV-1 TAT, reference compound]”: in the assay on TREX-BCBL-Vector cells [3], the “autophagy induction (GFP-LC3 puncta)” value is listed as “no increase in autophagy”. In addition, the “cell death (in words)” value in the assay on TREX-BCBL-Vector cells [4] is recorded as “no increase in autophagy nor cell death”.

Consider “EVVLFLLNVF (also: GST fusion; UniProt F5HEZ4 20-29, looked up, fragment) [DED1 α2 helix, α2 region of KSHV vFLIP amino acids 20-29; tested as mammalian GST fusion]”, for which, in the assay with Atg3 [2], the Atg3 binding entry was “individually sufficient for Atg3 binding”.

Consider RRRQRRKKRGY-G-FVNLAAAVVE [K-α2m], for which the “autophagy induction (GFP-LC3 puncta)” value with TREX-BCBL-Vector cells [3] is recorded as “no increase in autophagy”. For the same molecule, the “cell death (in words)” value with TREX-BCBL-Vector cells [4] is reported as “no increase in autophagy nor cell death”.

In the case of `CO[C@H]1C[C@@H]2CC[C@@H](C)[C@@](O)(O2)C(=O)C(=O)N2CCCC[C@H]2C(=O)O[C@H]([C@H](C)C[C@@H]2CC[C@@H](O)[C@H](OC)C2)CC(=O)[C@H](C)/C=C(\C)[C@@H](O)[C@@H](OC)C(=O)[C@H](C)C[C@H](C)/C=C/C=C/C=C/1C` [rapamycin], in assay [5], the “dead cells with characteristics of autophagic death (EM)” value is on record as “approximately 60%”.

B1: Flag-KSHV vFLIP DED1 (other)
chain: MATYEVLCEVARKLGTDDREVVLFLLNVFIPQPTLAQLIGALRALKEEGRLTFPLLAECLFRAGRRDLLRDLLHLDPRFLERHLAGTMSY
notes: also called DED1 of KSHV vFLIP
For B1, in assay [6], the binding result was “binds”.

B2: Flag-HVS vFLIP (other)
chain: MDLKTTVLHITDSFTEEEMYCLLFLINGCIPRNCNAVKISDLIIETLSKSTQWDICLTQCLYVLRKIELLLNLFQVTKEDVKQSFFTQLQLETHVLTLVNVNNNLTAKDEKRLCFILDQFFPRNVVASSVILCVFSNMLCEMPVLECLCQLKKCLKQIGRSDLAKTV
With B2, the binding result in [6] and in assay [7] was “binds” in each case.

B3: HVS vFLIP: viral FLIP of Herpesvirus saimiri (protein)
chain: MDLKTTVLHITDSFTEEEMYCLLFLINGCIPRNCNAVKISDLIIETLSKSTQWDICLTQCLYVLRKIELLLNLFQVTKEDVKQSFFTQLQLETHVLTLVNVNNNLTAKDEKRLCFILDQFFPRNVVASSVILCVFSNMLCEMPVLECLCQLKKCLKQIGRSDLAKTV
modifications: Saimiriine herpesvirus 2
notes: viral FLIP of Herpesvirus saimiri
Consider B3, for which the “suppression of starvation- and rapamycin-induced autophagy (GFP-LC3 puncta)” value in the assay with NIH3T3 cells was “strongly suppressed starvation- and rapamycin-induced autophagy; also recorded: had anti-autophagic activity”. Further, in the assay with LC3-II [8], the “processed LC3-II” value is recorded as “little or no processed LC3-II”. Moreover, the Atg3 binding entry in the assay with Atg3 [2] was “interacted with Atg3 as efficiently as KSHV-vFLIP”. For the same molecule, the “Atg3 regions bound (Atg3 deletion mutants)” value with Atg3 [9] is listed as “Atg3 binding patterns similar to KSHV vFLIP”.

B4: Flag-KSHV vFLIP DED2 (other)
chain: FSPYQLTVLHVDGELCARDIRSLIFLSKDTIGSRSTPQTFLHWVYCMENLDLLGPTDVDALMSMLRSLSRVDLQRQVQTLMGLHLSGPSHSQHYRHTP
notes: also called DED2 of KSHV vFLIP
As to B4, the binding result in [6] is given as “binds”.
